From ChEMBL document CHEMBL5233291, “Calamene-Type Sesqui-, Mero-, and Bis-sesquiterpenoids from Cultures of Heimiomyces sp., a Basidiomycete Collected in Africa” (J Nat Prod, 2023)
The source made the active and inactive calls. The rule behind the calls is not given here.

The compounds below were run on Mycolicibacterium smegmatis (assay: Antibacterial activity against Mycobacterium smegmatis ATCC 700084 assessed as inhibition of bacterial growth incubated for overnight by serial dilution assay).
Assay type: functional, organism-based

Compound	Activity
CC(C)[C@H]1CC[C@H](C)C2=C1C=C(C(=O)O)CC2	inactive
CC(C)[C@H]1CC[C@H](C)c2c(O)c(O)c(C=O)c(C3=C(O)C(=O)C4=C(OCc5c(O)c(O)c6c(c54)[C@@H](C(C)C)CC[C@@H]6C)C3=O)c21	inactive
O=c1cc(O)cc(/C=C/c2ccc(O)c(O)c2)o1	inactive
CC1=C(O)C(=O)C(c2c(C=O)c(O)c(O)c3c2[C@@H](C(C)C)CC[C@@H]3C)=C(O)C1=O	inactive
O=c1cc(O)cc(C2c3c(cc(/C=C/c4ccc(O)c(O)c4)oc3=O)OC2c2ccc(O)c(O)c2)o1 (stereo not given)	inactive

Each compound was assayed on Rhodotorula glutinis (assay: Antifungal activity against Rhodotorula glutinis DSM 10134 assessed as inhibition of fungal growth incubated for overnight by serial dilution assay).
Assay type: functional, organism-based

Compound	Activity
CC(C)[C@H]1CC[C@H](C)C2=C1C=C(C(=O)O)CC2	inactive
CC(C)[C@H]1CC[C@H](C)c2c(O)c(O)c(C=O)c(C3=C(O)C(=O)C4=C(OCc5c(O)c(O)c6c(c54)[C@@H](C(C)C)CC[C@@H]6C)C3=O)c21	inactive
O=c1cc(O)cc(/C=C/c2ccc(O)c(O)c2)o1	inactive
CC1=C(O)C(=O)C(c2c(C=O)c(O)c(O)c3c2[C@@H](C(C)C)CC[C@@H]3C)=C(O)C1=O	inactive
O=c1cc(O)cc(C2c3c(cc(/C=C/c4ccc(O)c(O)c4)oc3=O)OC2c2ccc(O)c(O)c2)o1 (stereo not given)	inactive

The compounds below were run on Staphylococcus aureus (assay: Antibacterial activity against Staphylococcus aureus DSM 346 assessed as inhibition of bacterial growth incubated for overnight by serial dilution assay).
Assay type: functional, organism-based

Compound	Activity
CC(C)[C@H]1CC[C@H](C)C2=C1C=C(C(=O)O)CC2	inactive
CC(C)[C@H]1CC[C@H](C)c2c(O)c(O)c(C=O)c(C3=C(O)C(=O)C4=C(OCc5c(O)c(O)c6c(c54)[C@@H](C(C)C)CC[C@@H]6C)C3=O)c21	inactive
O=c1cc(O)cc(/C=C/c2ccc(O)c(O)c2)o1	inactive
CC1=C(O)C(=O)C(c2c(C=O)c(O)c(O)c3c2[C@@H](C(C)C)CC[C@@H]3C)=C(O)C1=O	inactive
O=c1cc(O)cc(C2c3c(cc(/C=C/c4ccc(O)c(O)c4)oc3=O)OC2c2ccc(O)c(O)c2)o1 (stereo not given)	inactive

What follows are compounds tested on Escherichia coli (assay: Antibacterial activity against Escherichia coli DSM 1116 assessed as inhibition of bacterial growth incubated for overnight by serial dilution assay).
Assay type: functional, organism-based

Compound	Activity
CC(C)[C@H]1CC[C@H](C)C2=C1C=C(C(=O)O)CC2	inactive
CC(C)[C@H]1CC[C@H](C)c2c(O)c(O)c(C=O)c(C3=C(O)C(=O)C4=C(OCc5c(O)c(O)c6c(c54)[C@@H](C(C)C)CC[C@@H]6C)C3=O)c21	inactive
O=c1cc(O)cc(/C=C/c2ccc(O)c(O)c2)o1	inactive
CC1=C(O)C(=O)C(c2c(C=O)c(O)c(O)c3c2[C@@H](C(C)C)CC[C@@H]3C)=C(O)C1=O	inactive
O=c1cc(O)cc(C2c3c(cc(/C=C/c4ccc(O)c(O)c4)oc3=O)OC2c2ccc(O)c(O)c2)o1 (stereo not given)	inactive

The compounds below were run on Schizosaccharomyces pombe (assay: Antifungal activity against Schizosaccharomyces pombe DSM 70572 assessed as inhibition of fungal growth incubated for overnight by serial dilution assay).
Assay type: functional, organism-based

Compound	Activity
CC(C)[C@H]1CC[C@H](C)C2=C1C=C(C(=O)O)CC2	inactive
CC(C)[C@H]1CC[C@H](C)c2c(O)c(O)c(C=O)c(C3=C(O)C(=O)C4=C(OCc5c(O)c(O)c6c(c54)[C@@H](C(C)C)CC[C@@H]6C)C3=O)c21	inactive
O=c1cc(O)cc(/C=C/c2ccc(O)c(O)c2)o1	inactive
CC1=C(O)C(=O)C(c2c(C=O)c(O)c(O)c3c2[C@@H](C(C)C)CC[C@@H]3C)=C(O)C1=O	inactive
O=c1cc(O)cc(C2c3c(cc(/C=C/c4ccc(O)c(O)c4)oc3=O)OC2c2ccc(O)c(O)c2)o1 (stereo not given)	inactive

The compounds below were run on Pseudomonas aeruginosa (assay: Antibacterial activity against Pseudomonas aeruginosa DSM PA14 assessed as inhibition of bacterial growth incubated for overnight by serial dilution assay).
Assay type: functional, organism-based

Compound	Activity
CC(C)[C@H]1CC[C@H](C)C2=C1C=C(C(=O)O)CC2	inactive
CC(C)[C@H]1CC[C@H](C)c2c(O)c(O)c(C=O)c(C3=C(O)C(=O)C4=C(OCc5c(O)c(O)c6c(c54)[C@@H](C(C)C)CC[C@@H]6C)C3=O)c21	inactive
O=c1cc(O)cc(/C=C/c2ccc(O)c(O)c2)o1	inactive
CC1=C(O)C(=O)C(c2c(C=O)c(O)c(O)c3c2[C@@H](C(C)C)CC[C@@H]3C)=C(O)C1=O	inactive
O=c1cc(O)cc(C2c3c(cc(/C=C/c4ccc(O)c(O)c4)oc3=O)OC2c2ccc(O)c(O)c2)o1 (stereo not given)	inactive

These compounds were tested on Acinetobacter baumannii (assay: Antibacterial activity against Acinetobacter baumannii […] DSM 30008 assessed as inhibition of bacterial growth incubated for overnight by serial dilution assay).
Assay type: functional, organism-based

Compound	Activity
CC(C)[C@H]1CC[C@H](C)C2=C1C=C(C(=O)O)CC2	inactive
CC(C)[C@H]1CC[C@H](C)c2c(O)c(O)c(C=O)c(C3=C(O)C(=O)C4=C(OCc5c(O)c(O)c6c(c54)[C@@H](C(C)C)CC[C@@H]6C)C3=O)c21	inactive
O=c1cc(O)cc(/C=C/c2ccc(O)c(O)c2)o1	inactive
CC1=C(O)C(=O)C(c2c(C=O)c(O)c(O)c3c2[C@@H](C(C)C)CC[C@@H]3C)=C(O)C1=O	inactive
O=c1cc(O)cc(C2c3c(cc(/C=C/c4ccc(O)c(O)c4)oc3=O)OC2c2ccc(O)c(O)c2)o1 (stereo not given)	inactive

The compounds below were run on Chromobacterium violaceum (assay: Antibacterial activity against Chromobacterium violaceum DSM 30191 assessed as inhibition of bacterial growth incubated for overnight by serial dilution assay).
Assay type: functional, organism-based

Compound	Activity
CC(C)[C@H]1CC[C@H](C)C2=C1C=C(C(=O)O)CC2	inactive
CC(C)[C@H]1CC[C@H](C)c2c(O)c(O)c(C=O)c(C3=C(O)C(=O)C4=C(OCc5c(O)c(O)c6c(c54)[C@@H](C(C)C)CC[C@@H]6C)C3=O)c21	inactive
O=c1cc(O)cc(/C=C/c2ccc(O)c(O)c2)o1	inactive
CC1=C(O)C(=O)C(c2c(C=O)c(O)c(O)c3c2[C@@H](C(C)C)CC[C@@H]3C)=C(O)C1=O	inactive
O=c1cc(O)cc(C2c3c(cc(/C=C/c4ccc(O)c(O)c4)oc3=O)OC2c2ccc(O)c(O)c2)o1 (stereo not given)	inactive

What follows are compounds tested on Bacillus subtilis (assay: Antibacterial activity against Bacillus subtilis DSM 10 assessed as inhibition of bacterial growth incubated for overnight by serial dilution assay).
Assay type: functional, organism-based

Compound	Activity
CC(C)[C@H]1CC[C@H](C)C2=C1C=C(C(=O)O)CC2	inactive
CC(C)[C@H]1CC[C@H](C)c2c(O)c(O)c(C=O)c(C3=C(O)C(=O)C4=C(OCc5c(O)c(O)c6c(c54)[C@@H](C(C)C)CC[C@@H]6C)C3=O)c21	inactive
O=c1cc(O)cc(/C=C/c2ccc(O)c(O)c2)o1	inactive
CC1=C(O)C(=O)C(c2c(C=O)c(O)c(O)c3c2[C@@H](C(C)C)CC[C@@H]3C)=C(O)C1=O	inactive
O=c1cc(O)cc(C2c3c(cc(/C=C/c4ccc(O)c(O)c4)oc3=O)OC2c2ccc(O)c(O)c2)o1 (stereo not given)	inactive

Each compound was assayed on Wickerhamomyces anomalus (assay: Antifungal activity against Pichia anomala DSM 6766 assessed as inhibition of fungal growth incubated for overnight by serial dilution assay).
Assay type: functional, organism-based

Compound	Activity
CC(C)[C@H]1CC[C@H](C)C2=C1C=C(C(=O)O)CC2	inactive
CC(C)[C@H]1CC[C@H](C)c2c(O)c(O)c(C=O)c(C3=C(O)C(=O)C4=C(OCc5c(O)c(O)c6c(c54)[C@@H](C(C)C)CC[C@@H]6C)C3=O)c21	inactive
O=c1cc(O)cc(/C=C/c2ccc(O)c(O)c2)o1	inactive
CC1=C(O)C(=O)C(c2c(C=O)c(O)c(O)c3c2[C@@H](C(C)C)CC[C@@H]3C)=C(O)C1=O	inactive
O=c1cc(O)cc(C2c3c(cc(/C=C/c4ccc(O)c(O)c4)oc3=O)OC2c2ccc(O)c(O)c2)o1 (stereo not given)	inactive

Each compound was assayed on Mucor hiemalis (assay: Antifungal activity against Mucor hiemalis DSM 2656 assessed as inhibition of fungal growth incubated for overnight by serial dilution assay).
Assay type: functional, organism-based

Compound	Activity
CC(C)[C@H]1CC[C@H](C)C2=C1C=C(C(=O)O)CC2	inactive
CC(C)[C@H]1CC[C@H](C)c2c(O)c(O)c(C=O)c(C3=C(O)C(=O)C4=C(OCc5c(O)c(O)c6c(c54)[C@@H](C(C)C)CC[C@@H]6C)C3=O)c21	inactive
O=c1cc(O)cc(/C=C/c2ccc(O)c(O)c2)o1	inactive
CC1=C(O)C(=O)C(c2c(C=O)c(O)c(O)c3c2[C@@H](C(C)C)CC[C@@H]3C)=C(O)C1=O	inactive
O=c1cc(O)cc(C2c3c(cc(/C=C/c4ccc(O)c(O)c4)oc3=O)OC2c2ccc(O)c(O)c2)o1 (stereo not given)	inactive

The compounds below were run on Candida albicans (assay: Antifungal activity against Candida albicans DSM 1665 assessed as inhibition of fungal growth incubated for overnight by serial dilution assay).
Assay type: functional, organism-based

Compound	Activity
CC(C)[C@H]1CC[C@H](C)C2=C1C=C(C(=O)O)CC2	inactive
CC(C)[C@H]1CC[C@H](C)c2c(O)c(O)c(C=O)c(C3=C(O)C(=O)C4=C(OCc5c(O)c(O)c6c(c54)[C@@H](C(C)C)CC[C@@H]6C)C3=O)c21	inactive
O=c1cc(O)cc(/C=C/c2ccc(O)c(O)c2)o1	inactive
CC1=C(O)C(=O)C(c2c(C=O)c(O)c(O)c3c2[C@@H](C(C)C)CC[C@@H]3C)=C(O)C1=O	inactive
O=c1cc(O)cc(C2c3c(cc(/C=C/c4ccc(O)c(O)c4)oc3=O)OC2c2ccc(O)c(O)c2)o1 (stereo not given)	inactive
